Numbers after ± are expanded uncertainties.
What was measured:
[1] = Liquid; for mass density: 298.15 K, 101.33 kPa, Vibrating tube method; for Normal boiling temperature: Distillation
[2] = refractive index (Na D-line) (dimensionless); conditions: 298.15 K; 101.33 kPa; Liquid; Standard Abbe refractometry

| mass density [1] | Normal boiling temperature [1] | refractive index [2] | SMILES |
| --- | --- | --- | --- |
| 785.18 ± 0.15 kg/m3 | 77.90 ± 0.41 °C | 1.3594 ± 0.0005 | CCO [ethanol] |
|  | 197.12 ± 0.41 °C | 1.4308 ± 0.0005 | OCCO [1,2-ethanediol] |
|  | 100.00 ± 0.41 °C | 1.3325 ± 0.0005 | O [water] |
| 1258.52 ± 0.19 kg/m3 | 289.90 ± 0.41 °C | 1.4726 ± 0.0005 | OCC(O)CO [glycerol] |
